Five compounds from ChEMBL document CHEMBL1201862, “PubChem BioAssay data set” (2004) can be followed below.

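Method: 48-hour compound exposure of cells in 96-well plates, five concentrations, linear interpolation of endpoints. The concentration for 50% growth inhibition is given as GI50.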 Active and inactive are the calls of the source. Cut-off read from the data, not from the text of the source: active = GI50 up to about 1.1 µM and inactive = higher.

Some test systems named below: SNB-75; DU-145; MDA-N; SW-620; OVCAR-8; UO-31; ACHN; EKVX; HOP-62; A498; U-251; NCI-H522; LOX IMVI; HCT-15; HT-29; BT-549; SR; HOP-92; SN12C; IGROV-1.
Common to all, as to experiment: NCI-60 cell line screen, 48 h

Regarding `C/C(=N/NC(=S)N(C)CCc1ccccn1)c1cnccn1`, the GI50 with SNB-75 is 4.19 µM (inactive); with DU-145 it was 0.378 µM (active); in the assay on MDA-N, 0.828 µM (active); in the assay on SW-620 it was < 0.01 µM (active); with OVCAR-8, < 0.01 µM (active); with UO-31, < 0.0182 µM (active). Moreover, the GI50 with ACHN is < 0.01 µM (active); in the assay with EKVX it was < 0.01 µM (active); in the assay on HOP-62 it was < 0.0246 µM (active); with A498, 17.7 µM (inactive); in the assay with U-251 it was < 0.01 µM (active); in the assay on NCI-H522 it was < 0.01 µM (active). The GI50 in the assay on LOX IMVI is < 0.01 µM (active); in the assay on HCT-15, below 0.01 µM; in the assay with HT-29, < 0.01 µM (active); with BT-549, 0.398 µM (active); in the assay on SR, 0.018 µM (active); in the assay with HOP-92 it was 3.35 µM (inactive). Also, the GI50 in the assay on SN12C and in the assay with IGROV-1 was < 0.01 µM (active) throughout.

As to `CCOP(=O)(O)C(Nc1ccc(/N=N/c2ccccc2)cc1)c1cccc(C(Nc2ccc(/N=N/c3ccccc3)cc2)P(=O)(O)OCC)c1` (stereo not given), the GI50 is 44.4 µM (inactive) in the assay on SNB-75; 80.9 µM (inactive) with DU-145; 60.5 µM (inactive) in the assay with MDA-N; 35.2 µM (inactive) with SW-620; 55 µM (inactive) in the assay with OVCAR-8; 30 µM (inactive) in the assay on UO-31. Besides, the GI50 with ACHN is 45.9 µM (inactive); with EKVX, 57.4 µM (inactive); in the assay on HOP-62, 25.3 µM (inactive); in the assay on A498, 23 µM (inactive); in the assay with U-251, 31.2 µM (inactive); with NCI-H522 it was 20.8 µM (inactive). In addition, the GI50 is 19.9 µM (inactive) in the assay with LOX IMVI; 24.8 µM with HCT-15; 20.1 µM (inactive) in the assay on HT-29; 45.2 µM (inactive) in the assay on BT-549; 31.3 µM (inactive) in the assay on SR; 41.4 µM (inactive) in the assay with HOP-92. In addition, the GI50 in the assay on SN12C is 52 µM (inactive); in the assay on IGROV-1, 56.5 µM (inactive).

Turning to `NC(CC(=O)Nc1cc(C(F)(F)F)ccc1Cl)=NO`, the GI50 in the assay with SNB-75, in the assay on DU-145, in the assay on MDA-N, with SW-620, in the assay on OVCAR-8 and with UO-31 was > 100 µM (inactive) each time. In addition, the GI50 in the assay on ACHN, in the assay on EKVX, in the assay on HOP-62, with A498, in the assay with U-251 and in the assay on NCI-H522 was > 100 µM (inactive) each time. The GI50 was > 100 µM (inactive) with LOX IMVI; above 100 µM in the assay with HCT-15; > 100 µM (inactive) in the assay with HT-29; > 100 µM (inactive) in the assay on BT-549; > 100 µM (inactive) with SR; > 100 µM (inactive) in the assay on HOP-92. In addition, the GI50 with SN12C and in the assay with IGROV-1 was > 100 µM (inactive) throughout.

As to `O=C(/C=C/c1cc(O)c(O)cc1O)OCCc1ccccc1`, the GI50 in the assay on SNB-75 is 56 µM (inactive); with DU-145 it was > 52.6 µM (inactive); in the assay on MDA-N, 13.2 µM (inactive); in the assay on SW-620, 5.19 µM (inactive); in the assay with OVCAR-8, 9.57 µM (inactive); in the assay with UO-31, 10.3 µM (inactive). Also, the GI50 was 12.2 µM (inactive) with ACHN; 41.4 µM (inactive) in the assay with EKVX; 31.1 µM (inactive) in the assay with HOP-62; 21.2 µM (inactive) in the assay with A498; 27.7 µM (inactive) in the assay with U-251; 2.28 µM (inactive) in the assay on NCI-H522. The GI50 in the assay on LOX IMVI is 12.9 µM (inactive); in the assay on HCT-15, 22.2 µM; in the assay on HT-29 it was 18.4 µM (inactive); in the assay with BT-549 it was 25.7 µM (inactive); with SR, 5.53 µM (inactive); with HOP-92, 7.6 µM (inactive). The GI50 in the assay on SN12C is 15.6 µM (inactive); with IGROV-1 it was 23.1 µM (inactive).

For the compound `[O-]c1c2cc(-[n+]3c(-c4ccccc4)cc(-c4ccccc4)cc3-c3ccccc3)cc1CO[C@@H](c1ccccc1)[C@H](c1ccccc1)OCCOCCO[C@@H](c1ccccc1)[C@H](c1ccccc1)OC2`, the GI50 is 0.0486 µM (active) in the assay with SNB-75; 0.284 µM (active) with DU-145; 0.0426 µM (active) in the assay on MDA-N; 0.0562 µM (active) in the assay with SW-620; 0.0351 µM (active) in the assay with OVCAR-8; 0.379 µM (active) in the assay with UO-31. The GI50 is 0.167 µM (active) in the assay with ACHN; 0.109 µM (active) in the assay with EKVX; 0.129 µM (active) in the assay with HOP-62; 0.5 µM (active) with A498; 0.0297 µM (active) in the assay on U-251; 0.0264 µM (active) in the assay on NCI-H522. Also, the GI50 in the assay on LOX IMVI is 0.0577 µM (active); in the assay with HCT-15, 0.319 µM; with HT-29, 0.0386 µM (active); in the assay with BT-549, 0.0356 µM (active); in the assay on SR, 0.0309 µM (active); in the assay on HOP-92 it was 0.0857 µM (active). Moreover, the GI50 in the assay on SN12C is 0.0398 µM (active); in the assay on IGROV-1, 0.0455 µM (active).
